This is an account of results in patent US20160046618A1, “Cyclopropyl Fused Thiazin-2-Amine Compounds as Beta-Secretase Inhibitors and Methods of Use” (AMGEN INC., priority 2014, published 2016).

For one assay, the target named is human recombinant BACE1 (Homo sapiens (Human), UniProt P56817). As to the kind of experiment: In vitro enzymatic BACE1 FRET assay. Format: biochemical. Conditions: read-out: IC50 IP (μM) BACE1 enzyme. The procedure, abridged:
(§1)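 Protease purified by Ni-NTA chromatography; start with FRET substrate (50 nM); incubate 1 h; quench with Tris to neutral pH; read fluorescence ex 488 / em 590 nm.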

For the next assay, the target named is human recombinant BACE2 (Homo sapiens (Human), UniProt Q9Y5Z0). Briefly: In vitro enzymatic BACE2 FRET assay. Conditions: read-out: IC50 IP (μM) BACE2 enzyme. Format: biochemical. The procedure, abridged: as §1
Sequence of human recombinant BACE2 (Q9Y5Z0 63-518): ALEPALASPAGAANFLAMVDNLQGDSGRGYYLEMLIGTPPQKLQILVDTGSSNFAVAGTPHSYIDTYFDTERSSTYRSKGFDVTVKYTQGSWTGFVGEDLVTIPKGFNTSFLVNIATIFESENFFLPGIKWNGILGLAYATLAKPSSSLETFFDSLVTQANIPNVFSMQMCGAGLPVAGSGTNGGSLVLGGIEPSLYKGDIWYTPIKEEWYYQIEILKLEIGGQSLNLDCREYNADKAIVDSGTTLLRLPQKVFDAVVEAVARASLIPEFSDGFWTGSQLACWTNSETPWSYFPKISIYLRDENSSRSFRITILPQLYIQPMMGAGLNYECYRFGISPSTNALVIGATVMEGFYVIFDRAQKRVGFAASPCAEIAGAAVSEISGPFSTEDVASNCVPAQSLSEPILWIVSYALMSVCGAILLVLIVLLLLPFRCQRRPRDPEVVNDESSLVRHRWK
For assay [1], the system named is Aβ40 in conditioned medium of cells stably expressing Amyloid Precursor Protein (APP). Briefly: In vitro BACE-1 cell-based assay (Aβ40 sandwich ELISA). Conditions: read-out: IC50 IP (μM) BACE1 cell. The procedure, abridged: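 APP-expressing cells treated 24 h at 37 °C with compound in 10-point dose response (top 100 μM or 10 μM, 0.1% DMSO final). Secreted Aβ40 in conditioned medium quantified by sandwich ELISA (pAb40 capture, biotinylated 6E10 detection, time-resolved europium fluorescence); IC50 from percent inhibition versus concentration.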
(In an ELISA, binding on a coated surface is turned into a signal by an enzyme label.)

The target of a further assay is Recombinant Cat D (Homo sapiens (Human), UniProt P07339). Briefly: In vitro enzymatic Cathepsin D (Cat D) FRET assay. The assay is classed as biochemical. Conditions: read-out: IC50 IP (μM) CatD. In outline: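 Assay pH is 3.5 (0.05 M citrate, 5 mM CHAPS, 10% DMSO final) with Cat D from CHO cells. A 20 nM quenched peptide substrate is cleaved over one hour; the reaction is ended with Tris and read by fluorescence (ex 500, em 580 nm).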
Sequence of Recombinant Cat D (P07339 65-412): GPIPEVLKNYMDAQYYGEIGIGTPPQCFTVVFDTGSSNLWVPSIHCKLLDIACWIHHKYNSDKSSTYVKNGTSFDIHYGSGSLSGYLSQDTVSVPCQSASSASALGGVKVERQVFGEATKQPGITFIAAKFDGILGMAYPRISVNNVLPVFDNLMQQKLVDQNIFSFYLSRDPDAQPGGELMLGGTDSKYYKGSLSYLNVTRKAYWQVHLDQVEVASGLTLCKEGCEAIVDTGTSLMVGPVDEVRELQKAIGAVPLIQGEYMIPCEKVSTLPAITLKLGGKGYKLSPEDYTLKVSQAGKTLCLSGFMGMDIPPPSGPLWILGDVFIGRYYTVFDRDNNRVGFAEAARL

Sequence of human recombinant BACE1 (P56817 46-501): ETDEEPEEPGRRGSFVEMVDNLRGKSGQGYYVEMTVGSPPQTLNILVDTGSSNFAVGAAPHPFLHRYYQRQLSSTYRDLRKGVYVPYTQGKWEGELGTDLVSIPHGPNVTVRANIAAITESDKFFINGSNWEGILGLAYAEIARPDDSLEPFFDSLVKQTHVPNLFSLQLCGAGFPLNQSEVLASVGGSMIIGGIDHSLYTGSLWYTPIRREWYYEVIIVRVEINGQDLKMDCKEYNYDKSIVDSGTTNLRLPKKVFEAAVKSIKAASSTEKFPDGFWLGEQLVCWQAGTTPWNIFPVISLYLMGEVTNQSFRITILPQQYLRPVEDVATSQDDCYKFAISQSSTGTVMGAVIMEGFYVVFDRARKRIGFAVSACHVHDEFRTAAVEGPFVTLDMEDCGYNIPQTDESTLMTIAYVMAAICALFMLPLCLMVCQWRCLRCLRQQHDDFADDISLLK

A word on the IC50: it is the concentration needed to halve the response being measured. In the case of `CC#C[C@]12C[C@H]1[C@@](CF)(c1cc(Nc3nccc4nc(OCc5ncco5)cnc34)ccc1F)N=C(N)S2` [Example 958, N-(3-((1S,5S,6S)-3-amino-5-(fluoromethyl)-1-(1-propyn-1-yl)-2-thia-4-azabicyclo[4.1.0]hept-3-en-5-yl)-4-fluorophenyl)-2-(1,3-oxazol-2-ylmethoxy)pyrido[3,4-b]pyrazin-5-amine], the IC50 stood at 1.2 nM on human recombinant BACE1, 0.0662 µM at human recombinant BACE2, 0.04 µM in assay [1] and 354 µM at Recombinant Cat D.
As for `C#CCOc1cnc(C(=O)Nc2ccc(F)c([C@@]3(CF)N=C(N)S[C@@]4(c5c[nH]nn5)C[C@@H]34)c2)cn1` [Example 959, N-(3-((1S,5S,6S)-3-amino-5-(fluoromethyl)-1-(1H-1,2,3-triazol-4-yl)-2-thia-4-azabicyclo[4.1.0]hept-3-en-5-yl)-4-fluorophenyl)-5-(2-propyn-1-yloxy)-2-pyrazinecarboxamide], the IC50 is 0.0901 nM at human recombinant BACE1, under 0.00203 µM at human recombinant BACE2, 0.00152 µM in assay [1] and 44.1 µM at Recombinant Cat D.
Turning to `C#CCOc1cnc2c(Nc3ccc(F)c([C@@]4(CF)N=C(N)S[C@@]5(c6c[nH]nn6)C[C@@H]45)c3)nccc2n1` [Example 960, N-(3-((1S,5S,6S)-3-amino-5-(fluoromethyl)-1-(1H-1,2,3-triazol-4-yl)-2-thia-4-azabicyclo[4.1.0]hept-3-en-5-yl)-4-fluorophenyl)-2-(2-propyn-1-yloxy)pyrido[3,4-b]pyrazin-5-amine], the IC50 on human recombinant BACE1 was 0.507 nM; on human recombinant BACE2 it was 0.00422 µM; in assay [1] it was 0.00624 µM; on Recombinant Cat D, over 400 µM.
Taken in the same sequence, the figures for `C[C@]1(c2cc(Nc3ncnc4cc(C#N)cnc34)ccc2F)N=C(N)S[C@@]2(CO)[C@@H]1C2(F)F` [Example 961, 4-((3-((1R,5S,6S)-3-amino-7,7-difluoro-1-(hydroxymethyl)-5-methyl-2-thia-4-azabicyclo[4.1.0]hept-3-en-5-yl)-4-fluorophenyl)amino)pyrido[3,2-d]pyrimidine-7-carbonitrile] were 12 nM, 0.0223 µM, 0.0214 µM and 171 µM.
The corresponding values for `NC1=N[C@](CF)(c2cc(NC(=O)c3ccc(Cl)cn3)ccc2F)[C@H]2C3CSC[C@@]32S1` (stereo partly drawn) [Example 962, N-(3-((4S,4aR,7aS)-2-amino-4-(fluoromethyl)-4a,4b,5,7-tetrahydro-4H-thieno[3′,4′:2,3]cyclopropa[1,2-e][1,3]thiazin-4-yl)-4-fluorophenyl)-5-chloropicolinamide] are 10 nM, 0.0199 µM, 0.104 µM and 21 µM.
The corresponding values for `CNC(=O)[C@]12C[C@H]1[C@@](C)(c1cc(NC(=O)c3cnc(OCC(F)(F)C(F)F)cn3)cc(F)c1F)N=C(N)S2` [Example 963, (1S,5S,6S)-3-amino-5-(2,3-difluoro-5-(((5-(2,2,3,3-tetrafluoropropoxy)-2-pyrazinyl)carbonyl)amino)phenyl)-N,5-dimethyl-2-thia-4-azabicyclo[4.1.0]hept-3-ene-1-carboxamide] are 0.194 nM, 0.0631 µM, 0.0026 µM and 267 µM.
For the compound `C#CCOc1cnc(C(=O)Nc2cnc(OC)c([C@@]3(C)N=C(N)S[C@@]4(C#N)C[C@H]43)c2)cn1` [Example 964, N-(5-((1S,5S,6S)-3-amino-1-cyano-5-methyl-2-thia-4-azabicyclo[4.1.0]hept-3-en-5-yl)-6-methoxy-3-pyridinyl)-5-(2-propyn-1-yloxy)-2-pyrazinecarboxamide], the IC50 at human recombinant BACE1 worked out at 0.737 nM; at human recombinant BACE2, 0.00887 µM; in assay [1], 0.00154 µM; on Recombinant Cat D, 98.9 µM.
As for `C#C[C@H](C)Oc1cnc(C(=O)Nc2cc(F)c(F)c([C@@]3(C)N=C(N)S[C@@]4(C(=O)NC)C[C@H]43)c2)cn1` [Example 967, (1S,5S,6S)-3-amino-5-(2,3-difluoro-5-(((5-(((1S)-1-methyl-2-propyn-1-yl)oxy)-2-pyrazinyl)carbonyl)amino)phenyl)-N,5-dimethyl-2-thia-4-azabicyclo[4.1.0]hept-3-ene-1-carboxamide], the IC50 amounted to 0.11 nM at human recombinant BACE1, 0.0149 µM on human recombinant BACE2, 0.000539 µM in assay [1] and 269 µM at Recombinant Cat D.
Taken in the same sequence, the figures for `COC[C@H](C)Oc1cnc(C(=O)Nc2ccc(F)c([C@@]3(C)N=C(N)S[C@@]4(COC)C[C@H]43)c2)cn1` [Example 970, N-(3-((1S,5S,6S)-3-amino-1-(methoxymethyl)-5-methyl-2-thia-4-azabicyclo[4.1.0]hept-3-en-5-yl)-4-fluorophenyl)-5-((1S)-2-methoxy-1-methylethoxy)-2-pyrazinecarboxamide] were 8.5 nM, 0.333 µM, 0.021 µM and over 400 µM.
Taken in the same sequence, the figures for `COC[C@H](C)Oc1cnc(C(=O)Nc2ccc(F)c([C@@]3(C)N=C(N)S[C@@]4(C(F)F)C[C@@H]34)c2)cn1` [Example 971, N-(3-((1S,5S,6S)-3-amino-1-(difluoromethyl)-5-methyl-2-thia-4-azabicyclo[4.1.0]hept-3-en-5-yl)-4-fluorophenyl)-5-((1S)-2-methoxy-1-methylethoxy)-2-pyrazinecarboxamide] were 5.22 nM, 0.38 µM, 0.0185 µM and 611 µM.
Taken in the same sequence, the figures for `C[C@]1(c2cc(NC(=O)c3cnc(OCC(F)(F)F)cn3)ccc2F)N=C(N)S[C@@]2(C(=O)NCC(F)(F)F)C[C@H]21` [Example 972, (1S,5S,6S)-3-amino-5-(2-fluoro-5-(5-(2,2,2-trifluoroethoxy)pyrazine-2-carboxamido)phenyl)-5-methyl-N-(2,2,2-trifluoroethyl)-2-thia-4-azabicyclo[4.1.0]hept-3-ene-1-carboxamide] were 0.454 nM, 0.0794 µM, 0.00455 µM and 138 µM.
Consider `CNC(=O)[C@]12C[C@H]1[C@@](C)(c1cc(NC(=O)c3cnc(OCC(F)(F)F)cn3)ccc1F)N=C(N)S2` [Example 973, (1S,5S,6S)-3-amino-5-(2-fluoro-5-(5-(2,2,2-trifluoroethoxy)pyrazine-2-carboxamido)phenyl)-N,5-dimethyl-2-thia-4-azabicyclo[4.1.0]hept-3-ene-1-carboxamide], for which the IC50 is 0.404 nM on human recombinant BACE1, 0.0476 µM at human recombinant BACE2, 0.00192 µM in assay [1] and 1570 µM at Recombinant Cat D.
Taken in the same sequence, the figures for `CC(C)[C@H](C)NC(=O)[C@]12C[C@H]1[C@@](C)(c1cc(NC(=O)c3cnc(OCC(F)(F)F)cn3)ccc1F)N=C(N)S2` [Example 974, (1S,5S,6S)-3-amino-5-(2-fluoro-5-(5-(2,2,2-trifluoroethoxy)pyrazine-2-carboxamido)phenyl)-5-methyl-N—((S)-3-methylbutan-2-yl)-2-thia-4-azabicyclo[4.1.0]hept-3-ene-1-carboxamide] were 1.32 nM, 0.014 µM, 0.00257 µM and 14.5 µM.
The corresponding values for `C#CCOc1cnc(C(=O)Nc2cc(F)c(F)c([C@@]3(C)N=C(N)S[C@@]4(C(=O)OC)C[C@H]43)c2)cn1` [Example 975, methyl (1S,5S,6S)-3-amino-5-(2,3-difluoro-5-(((5-(2-propyn-1-yloxy)-2-pyrazinyl)carbonyl)amino)phenyl)-5-methyl-2-thia-4-azabicyclo[4.1.0]hept-3-ene-1-carboxylate] are 0.565 nM, 0.0562 µM, 0.00551 µM and 212 µM.
For the compound `CCNC(=O)[C@]12C[C@H]1[C@@](C)(c1cc(NC(=O)c3cnc(OCC(F)(F)F)cn3)ccc1F)N=C(N)S2` [Example 977, (1S,5S,6S)-3-amino-N-ethyl-5-(2-fluoro-5-(5-(2,2,2-trifluoroethoxy)pyrazine-2-carboxamido)phenyl)-5-methyl-2-thia-4-azabicyclo[4.1.0]hept-3-ene-1-carboxamide], the IC50 on human recombinant BACE1 stood at 0.782 nM; on human recombinant BACE2, 0.0876 µM; in assay [1] it was 0.00439 µM; on Recombinant Cat D, 577 µM.
With `C#C[C@H](C)Oc1cnc(C(=O)Nc2ccc(F)c([C@@]3(C)N=C(N)S[C@@]4(C(=O)NC)C[C@H]43)c2)cn1` [Example 978, (1S,5S,6S)-3-amino-5-(5-(5-((S)-but-3-yn-2-yloxy)pyrazine-2-carboxamido)-2-fluorophenyl)-N,5-dimethyl-2-thia-4-azabicyclo[4.1.0]hept-3-ene-1-carboxamide], the IC50 is 0.344 nM at human recombinant BACE1, 0.0195 µM on human recombinant BACE2, 0.000648 µM in assay [1] and over 400 µM at Recombinant Cat D.
The corresponding values for `C#CCOc1cnc2c(Nc3ccc(F)c([C@@]4(C)N=C(N)S[C@@]5(C(=O)NC)C[C@H]54)c3)nccc2n1` [Example 979, (1S,5S,6S)-3-amino-5-(2-fluoro-5-((2-(2-propyn-1-yloxy)pyrido[3,4-b]pyrazin-5-yl)amino)phenyl)-N,5-dimethyl-2-thia-4-azabicyclo[4.1.0]hept-3-ene-1-carboxamide] are 0.315 nM, 0.0201 µM, 0.000859 µM and over 400 µM.
